From patent US20230382924A1, “MODULATORS OF CYSTIC FIBROSIS TRANSMEMBRANE CONDUCTANCE REGULATOR” (VERTEX PHARMACEUTICALS INCORPORATED, priority 2020, published 2023) come the findings set out here.

By EC50 is commonly meant the midpoint of the concentration-response curve.

Several values for one entry are separate records, joined by “and”; a condition that tells them apart may be missing. Equal values may be shown once. Read-outs that look alike come from different tables or passages of the source.

The target of one series is CFTR (Homo sapiens, UniProt P13569). The experiment in a line: Membrane Potential Dye, Enteroid Assay A. The following applies: for EC50: read-out: Ent. A EC50. The class given is cell-based. In short, it runs like this: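 Enteroid cells were loaded with methyl oxonol membrane potential dye (plus CaCCinh-A01 and Chicago Sky Blue) for 25 min at room temperature. Chloride transport was started by switching to chloride-free gluconate stimulation solution, with fluorescence read for 15 min. Activity was expressed as % of a triple-combination CFTR modulator control (3 μM, 3 μM, 300 nM acute).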

[1] abbreviates: from COC[C@@H](N)[C@H](Oc1cc(-c2c(C)cccc2C)nc(NS(=O)(=O)c2cccc(C(=O)O)c2)n1)c1ccc(C(C)(C)C)cc1, amide bond, 13-membered ring, HATU/DIEA, DMF, 162.0 mM, 0.5 h.

Sequence of CFTR (P13569 with tags, fused parts or gaps DEL508-508): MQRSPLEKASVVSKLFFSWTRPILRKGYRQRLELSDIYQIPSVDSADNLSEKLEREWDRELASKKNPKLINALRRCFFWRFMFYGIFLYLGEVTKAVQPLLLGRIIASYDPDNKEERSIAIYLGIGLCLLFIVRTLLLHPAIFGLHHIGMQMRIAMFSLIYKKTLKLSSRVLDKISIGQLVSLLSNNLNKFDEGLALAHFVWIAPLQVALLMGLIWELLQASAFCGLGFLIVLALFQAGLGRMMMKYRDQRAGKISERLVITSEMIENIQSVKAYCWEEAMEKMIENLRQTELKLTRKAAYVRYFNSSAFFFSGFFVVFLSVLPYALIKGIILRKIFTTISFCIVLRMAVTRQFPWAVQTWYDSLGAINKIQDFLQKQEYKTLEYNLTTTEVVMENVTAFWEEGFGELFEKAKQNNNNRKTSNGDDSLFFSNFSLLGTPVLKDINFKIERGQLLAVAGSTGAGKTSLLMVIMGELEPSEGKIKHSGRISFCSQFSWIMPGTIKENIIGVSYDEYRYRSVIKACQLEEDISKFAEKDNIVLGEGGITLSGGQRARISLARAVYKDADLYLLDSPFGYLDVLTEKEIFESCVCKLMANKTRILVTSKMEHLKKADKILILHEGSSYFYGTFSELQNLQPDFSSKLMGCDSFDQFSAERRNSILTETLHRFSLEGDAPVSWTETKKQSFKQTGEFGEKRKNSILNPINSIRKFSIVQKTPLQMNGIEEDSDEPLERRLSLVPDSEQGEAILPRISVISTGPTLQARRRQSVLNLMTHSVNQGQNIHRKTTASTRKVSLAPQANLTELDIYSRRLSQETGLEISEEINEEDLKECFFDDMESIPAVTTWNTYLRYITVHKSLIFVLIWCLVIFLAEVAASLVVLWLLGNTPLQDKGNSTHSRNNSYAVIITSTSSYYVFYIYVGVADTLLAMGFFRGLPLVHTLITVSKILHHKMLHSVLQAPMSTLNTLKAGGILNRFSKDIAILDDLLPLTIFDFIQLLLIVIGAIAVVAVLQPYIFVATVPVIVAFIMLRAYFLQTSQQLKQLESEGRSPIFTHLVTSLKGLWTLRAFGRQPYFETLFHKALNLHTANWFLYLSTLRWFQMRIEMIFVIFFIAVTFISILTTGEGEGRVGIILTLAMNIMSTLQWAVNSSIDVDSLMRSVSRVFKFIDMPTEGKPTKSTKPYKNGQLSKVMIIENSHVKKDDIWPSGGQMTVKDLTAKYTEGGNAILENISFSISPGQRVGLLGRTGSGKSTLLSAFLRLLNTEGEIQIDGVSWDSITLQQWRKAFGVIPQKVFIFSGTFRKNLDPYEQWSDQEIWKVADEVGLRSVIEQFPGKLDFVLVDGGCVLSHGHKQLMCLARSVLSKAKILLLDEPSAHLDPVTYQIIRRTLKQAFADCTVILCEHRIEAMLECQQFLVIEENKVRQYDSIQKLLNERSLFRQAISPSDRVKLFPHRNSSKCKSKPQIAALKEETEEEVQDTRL

Where the note is “from Cc1cccc(C)c1-c1cc(OC[C@H](N)CC2CCCCC2)nc(NS(=O)(=O)N2CCCC(C(=O)O)C2)n1, amide bond, 13-membered ring, HATU/DIEA, DMF, 19.2 mM, 3.0 h”, `Cc1cccc(C)c1-c1cc2nc(n1)NS(=O)(=O)N1CCCC(C1)C(=O)N[C@H](CC1CCCCC1)CO2` (stereo partly drawn) [Compound 73, (11R)-11-(Cyclohexylmethyl)-6-(2,6-dimethylphenyl)-2,2-dioxo-9-oxa-2λ^6-thia-1,3,5,12,19-pentazatricyclo[12.3.1.14,8]nonadeca-4(19),5,7-trien-13-one] showed a ring closure, yield after HPLC of 19%. On CFTR (Table 8), the “Ent. A Max Activity” value was “+ (+ is <30%)”.
Take `Cc1cccc(C)c1-c1cc2nc(n1)NS(=O)(=O)c1cccc(c1)C(=O)NCC(c1ccccc1Cl)O2` (stereo not drawn) [Compound 31, 10-(2-Chlorophenyl)-6-(2,6-dimethylphenyl)-2,2-dioxo-9-oxa-2λ^6-thia-3,5,12,19-tetrazatricyclo[12.3.1.14,8]nonadeca-1(18),4(19),5,7,14,16-hexaen-13-one]: the ring closure, yield after HPLC (from Cc1cccc(C)c1-c1cc(OC(CN)c2ccccc2Cl)nc(NS(=O)(=O)c2cccc(C(=O)O)c2)n1, amide bond, 13-membered ring, HATU/DIEA, DMF, 42.4 mM, 25.0 °C, 1.0 h) is 49%. Also, at CFTR (Table 8), the “Ent. A Max Activity” value is recorded as “+++ (+++ is >60%)” and the EC50 was below 1000 nM.
For the setting “from Cc1cccc(C)c1-c1cc(OC(CN)C(=O)NCCC(C)(C)C)nc(NS(=O)(=O)c2cccc(C(=O)O)c2)n1, amide bond, 13-membered ring, HATU/DIEA, DMF, 30.2 mM, 25.0 °C, 0.25 h”, `Cc1cccc(C)c1-c1cc2nc(n1)NS(=O)(=O)c1cccc(c1)C(=O)NCC(C(=O)NCCC(C)(C)C)O2` (stereo not drawn) [Compound 30, N-(3,3-Dimethylbutyl)-6-(2,6-dimethylphenyl)-2,2,13-trioxo-9-oxa-2λ^6-thia-3,5,12,19-tetrazatricyclo[12.3.1.14,8]nonadeca-1(18),4(19),5,7,14,16-hexaene-10-carboxamide] registered a ring closure, yield after HPLC of 28%. Moreover, at CFTR (Table 8), the EC50 was in the range of 3000 to 30000 nM.
As to `Cc1cccc(C)c1-c1cc2nc(n1)NS(=O)(=O)c1cccc(c1)C(=O)N[C@H](C)[C@@H](c1ccc(C(F)(F)F)cc1)O2` [Compound 41, (10R,11R)-6-(2,6-Dimethylphenyl)-11-methyl-2,2-dioxo-10-[4-(trifluoromethyl)phenyl]-9-oxa-2λ^6-thia-3,5,12,19-tetrazatricyclo[12.3.1.14,8]nonadeca-1(18),4(19),5,7,14,16-hexaen-13-one], the ring closure, yield after HPLC (from Cc1cccc(C)c1-c1cc(O[C@H](c2ccc(C(F)(F)F)cc2)[C@@H](C)N)nc(NS(=O)(=O)c2cccc(C(=O)O)c2)n1, amide bond, 13-membered ring, HATU/NaOtBu, DMF/THF, 96.3 mM, 25.0 °C, 0.33 h, 2 steps) was determined as 10%. In addition, at CFTR (Table 9), the “Ent. A Max Activity” value is “++ (++ is 30-60%)” and the EC50 was below 1000 nM.
In turn, `Cc1cccc(C)c1-c1cc2nc(n1)NS(=O)(=O)c1cccc(c1)C(=O)NCC(C1CCOCC1)O2` (stereo not drawn) [Compound 34, 6-(2,6-Dimethylphenyl)-2,2-dioxo-10-tetrahydropyran-4-yl-9-oxa-2λ^6-thia-3,5,12,19-tetrazatricyclo[12.3.1.14,8]nonadeca-1(18),4(19),5,7,14,16-hexaen-13-one] yielded a ring closure, yield after HPLC (from Cc1cccc(C)c1-c1cc(OC(CN)C2CCOCC2)nc(NS(=O)(=O)c2cccc(C(=O)O)c2)n1, amide bond, 13-membered ring, HATU/DIEA, DMF, 66.2 mM, 25.0 °C, 0.25 h) of 25%. Further, at CFTR (Table 8), the “Ent. A Max Activity” value is recorded as “+ (+ is <30%)”.
Turning to `Cc1cccc(C)c1-c1cc2nc(n1)NS(=O)(=O)c1cccc(c1)C(=O)NCC(c1cccc(Cl)c1)O2` (stereo not drawn) [Compound 32, 10-(3-Chlorophenyl)-6-(2,6-dimethylphenyl)-2,2-dioxo-9-oxa-2λ^6-thia-3,5,12,19-tetrazatricyclo[12.3.1.14,8]nonadeca-1(18),4(19),5,7,14,16-hexaen-13-one], the ring closure, yield after HPLC (from Cc1cccc(C)c1-c1cc(OC(CN)c2cccc(Cl)c2)nc(NS(=O)(=O)c2cccc(C(=O)O)c2)n1, amide bond, 13-membered ring, HATU/DIEA, DMF, 41.6 mM, 25.0 °C, 1.0 h) turned out to be 27%. Moreover, at CFTR (Table 8), the “Ent. A Max Activity” value is on record as “+++ (+++ is >60%)” and the EC50 was below 1000 nM.
Consider `COC[C@H]1NC(=O)c2cccc(c2)S(=O)(=O)Nc2nc(cc(-c3c(C)cccc3C)n2)OC1c1ccc(C(C)(C)C)cc1` (single isomer, unassigned) [Compound 45], for which the ring closure, yield after HPLC (from COC[C@@H](N)[C@H](Oc1cc(-c2c(C)cccc2C)nc(NS(=O)(=O)c2cccc(C(=O)O)c2)n1)c1ccc(C(C)(C)C)cc1, amide bond, 13-membered ring, HATU/DIEA, DMF, 161.6 mM, 25.0 °C, 0.5 h) was 8%. The ring closure, yield after HPLC under setting [1] was determined as 10%. Moreover, on CFTR (Table 9), the “Ent. A Max Activity” value is reported as “+++ (+++ is >60%)” and the EC50 was below 1000 nM.
Take `Cc1cccc(C)c1-c1cc2nc(n1)NS(=O)(=O)c1cccc(c1)C(=O)N[C@@H](C)[C@@H](c1ccc(C(C)(C)C)cc1)O2` [Compound 43, (10R,11S)-10-(4-tert-butylphenyl)-6-(2,6-dimethylphenyl)-11-methyl-2,2-dioxo-9-oxa-2λ^6-thia-3,5,12,19-tetrazatricyclo[12.3.1.14,8]nonadeca-1(18),4(19),5,7,14,16-hexaen-13-one]: for the setting “from Cc1cccc(C)c1-c1cc(O[C@H](c2ccc(C(C)(C)C)cc2)[C@H](C)N)nc(NS(=O)(=O)c2cccc(C(=O)O)c2)n1, amide bond, 13-membered ring, HATU/NaOtBu, DMF/THF, 53.4 mM, 25.0 °C, 0.1 h, 2 steps”, the ring closure, yield after HPLC turned out to be 13%. At CFTR (Table 9), the “Ent. A Max Activity” value was “+++ (+++ is >60%)” and the EC50 is below 1000 nM.
Regarding `Cc1cccc(C)c1-c1cc2nc(n1)NS(=O)(=O)c1cccc(c1)C(=O)NCC(c1ccc(OCC3(C(F)(F)F)CC3)cc1)O2` (stereo not drawn) [Compound 33, 6-(2,6-Dimethylphenyl)-2,2-dioxo-10-[4-[[1-(trifluoromethyl)cyclopropyl]methoxy]phenyl]-9-oxa-2λ^6-thia-3,5,12,19-tetrazatricyclo[12.3.1.14,8]nonadeca-1(18),4(19),5,7,14,16-hexaen-13-one], the ring closure, yield after HPLC (from Cc1cccc(C)c1-c1cc(OC(CN)c2ccc(OCC3(C(F)(F)F)CC3)cc2)nc(NS(=O)(=O)c2cccc(C(=O)O)c2)n1, amide bond, 13-membered ring, HATU/DIEA, DMF, 48.7 mM, 25.0 °C, 72.0 h) is 10%. For the same molecule, on CFTR (Table 8), the “Ent. A Max Activity” value is recorded as “+++ (+++ is >60%)” and the EC50 was below 1000 nM.
Regarding `Cc1cccc(C)c1-c1cc2nc(n1)NS(=O)(=O)C1CCC1C(=O)N[C@H](CC(C)C)CO2` (stereo partly drawn), the ring closure, yield after HPLC (from Cc1cccc(C)c1-c1cc(OC[C@H](N)CC(C)C)nc(NS(=O)(=O)C2CCC2C(=O)O)n1, amide bond, 12-membered ring, HATU/DIEA, DMF, 42.9 mM, 25.0 °C, 0.083 h, 2 steps) is 4% and 8%.
Take `COC[C@H]1NC(=O)c2cccc(c2)S(=O)(=O)Nc2nc(cc(-c3c(C)cccc3C)n2)O[C@@H]1c1ccc(C(C)(C)C)cc1` (single isomer, unassigned) [Compound 44]: under setting [1], the ring closure, yield after HPLC was found to be 8%. Besides, at CFTR (Table 9), the “Ent. A Max Activity” value is reported as “+++ (+++ is >60%)” and the EC50 is below 1000 nM.
`Cc1cccc(C)c1-c1cc2nc(n1)NS(=O)(=O)c1cccc(c1)C(=O)NCC(c1ccc(C(C)(C)C)cc1)O2` (stereo not drawn) [Compound 3, 10-(4-tert-butylphenyl)-6-(2,6-dimethylphenyl)-2,2-dioxo-9-oxa-2λ^6-thia-3,5,12,19-tetrazatricyclo[12.3.1.14,8]nonadeca-1(18),4(19),5,7,14,16-hexaen-13-one]: the ring closure, yield after HPLC (from Cc1cccc(C)c1-c1cc(Cl)nc(NS(=O)(=O)c2cccc(C(=O)NCC(O)c3ccc(C(C)(C)C)cc3)c2)n1, snar bond, 13-membered ring, NaH, NMP, 8.5 mM, 90.0 °C, 2.5 h) amounted to 12%. At CFTR (Table 8), the “Ent. A Max Activity” value is “+++ (+++ is >60%)” and the EC50 is below 1000 nM.
With `Cc1cccc(COCc2ccccc2)c1-c1cc2nc(n1)NS(=O)(=O)c1cccc(c1)C(=O)N[C@H](CC(C)C)CO2` [Compound 106, (11R)-6-[2-(benzyloxymethyl)-6-methyl-phenyl]-11-isobutyl-2,2-dioxo-9-oxa-2λ^6-thia-3,5,12,19-tetrazatricyclo[12.3.1.14,8]nonadeca-1(18),4(19),5,7,14,16-hexaen-13-one], the ring closure, yield after HPLC (from Cc1cccc(COCc2ccccc2)c1-c1cc(OC[C@H](N)CC(C)C)nc(NS(=O)(=O)c2cccc(C(=O)O)c2)n1, amide bond, 13-membered ring, HATU/DIEA, DMF, 48.7 mM, 25.0 °C, 0.5 h) was 30%. Also, at CFTR (Table 9), the “Ent. A Max Activity” value is “+++ (+++ is >60%)” and the half-maximal effective concentration (EC50) was below 1000 nM.
Molecule `Cc1cccc(C)c1-c1cc2nc(n1)NS(=O)(=O)c1cccc(c1)C(=O)NCC(c1ccc(C(C)(C)C)cn1)O2` (stereo not drawn) [Compound 6, 10-(5-tert-Butyl-2-pyridyl)-6-(2,6-dimethylphenyl)-2,2-dioxo-9-oxa-2λ^6-thia-3,5,12,19-tetrazatricyclo[12.3.1.14,8]nonadeca-1(18),4(19),5,7,14,16-hexaen-13-one] showed a ring closure, yield after HPLC (from Cc1cccc(C)c1-c1cc(OC(CN)c2ccc(C(C)(C)C)cn2)nc(NS(=O)(=O)c2cccc(C(=O)O)c2)n1, amide bond, 13-membered ring, HATU/DIEA, DMF, 40.9 mM, 25.0 °C, 0.25 h) of 33%. At CFTR (Table 8), the EC50 is below 1000 nM.
For the setting “from Cc1cccc(C)c1-c1cc(O[C@H](CN)c2ccccc2)nc(NS(=O)(=O)c2cccc(C(=O)O)c2)n1, amide bond, 13-membered ring, HATU/DIEA, DMF, 25.9 mM, 25.0 °C, 1.0 h, 2 steps”, `Cc1cccc(C)c1-c1cc2nc(n1)NS(=O)(=O)c1cccc(c1)C(=O)NC[C@H](c1ccccc1)O2` [Compound 26, (10S)-6-(2,6-Dimethylphenyl)-2,2-dioxo-10-phenyl-9-oxa-2λ^6-thia-3,5,12,19-tetrazatricyclo[12.3.1.14,8]nonadeca-1(18),4(19),5,7,14,16-hexaen-13-one] came in with a ring closure, yield after HPLC of 38%.
Where the note is “from Cc1cccc(C)c1-c1nc(NS(=O)(=O)c2cccc(C(=O)O)c2)cc(OC[C@H](N)CC(C)C)n1, amide bond, 13-membered ring, HATU/TEA, DMF, 12.2 mM, 25.0 °C, 0.083 h”, `Cc1cccc(C)c1-c1nc2cc(n1)OC[C@@H](CC(C)C)NC(=O)c1cccc(c1)S(=O)(=O)N2` showed a ring closure, yield after HPLC of 32%.
